Results published in patent US20110152243A1, “NOVEL THIENOPYRROLE COMPOUNDS” (ABBOTT LABORATORIES, priority 2009, published 2011).

target: PKCθ (Homo sapiens, UniProt Q04759); assay: PKCθ enzyme data at 1 mM ATP; assay type: biochemical
Sequence (Q04759 whole entry): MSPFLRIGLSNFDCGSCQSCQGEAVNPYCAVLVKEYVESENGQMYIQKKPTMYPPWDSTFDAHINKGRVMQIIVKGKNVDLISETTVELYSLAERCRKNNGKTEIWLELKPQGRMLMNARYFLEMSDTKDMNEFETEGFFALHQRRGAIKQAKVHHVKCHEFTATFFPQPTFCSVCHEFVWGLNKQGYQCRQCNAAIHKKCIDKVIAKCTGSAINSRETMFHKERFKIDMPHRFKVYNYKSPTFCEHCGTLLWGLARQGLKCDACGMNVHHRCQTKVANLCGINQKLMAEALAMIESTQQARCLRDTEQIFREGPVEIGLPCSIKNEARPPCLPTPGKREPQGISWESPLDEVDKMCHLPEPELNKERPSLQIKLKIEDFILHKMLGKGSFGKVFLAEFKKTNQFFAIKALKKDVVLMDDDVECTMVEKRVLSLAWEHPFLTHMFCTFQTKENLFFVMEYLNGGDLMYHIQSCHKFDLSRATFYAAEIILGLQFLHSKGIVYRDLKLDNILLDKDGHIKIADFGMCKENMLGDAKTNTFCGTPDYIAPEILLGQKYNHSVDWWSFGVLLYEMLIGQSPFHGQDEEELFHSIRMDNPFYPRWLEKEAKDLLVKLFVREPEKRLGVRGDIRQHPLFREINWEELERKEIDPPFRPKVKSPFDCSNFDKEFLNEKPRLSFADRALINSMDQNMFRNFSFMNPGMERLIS

Structure (SMILES)	IC50
CN1CCN(c2nc(C3=C(c4c[nH]c5ccsc45)C(=O)NC3=O)c3ccc(F)cc3n2)CC1 [F.3.5]	< 100 nM
CN1CCC(Cc2nc(C3=C(c4c[nH]c5sccc45)C(=O)NC3=O)c3ccccn23)CC1 [F.4.33]	500 to 1000 nM
CN1CCN(c2nc(C3=C(c4c[nH]c5sccc45)C(=O)NC3=O)c3c(F)cccc3n2)CC1 [F.4.1, 3-(5-Fluoro-2-(4-methylpiperazin-1-yl)quinazolin-4-yl)-4-(6H-thieno[2,3-b]pyrrol-4-yl)-1H-pyrrole-2,5-dione]	< 100 nM
Cc1noc(C2CCN(c3nc(C4=C(c5c[nH]c6sccc56)C(=O)NC4=O)c4ccccc4n3)CC2)n1 [E.1.10]	500 to 1000 nM
O=C1NC(=O)C(c2nn(C3CCNCC3)c3ccccc23)=C1c1c[nH]c2sccc12 [G.1.11]	100 to 500 nM
O=C1NC(=O)C(c2c[nH]c3sccc23)=C1c1nc(N2CCC3(CC2)CNC3)nc2ccccc12 [G.1.13]	100 to 500 nM
O=C1NC(=O)C(c2c[nH]c3sccc23)=C1c1nc(N2CCC(CN3CCC3)CC2)nc2ccccc12 [E.1.17]	< 100 nM

Other lines, results leading:

IC50	Structure (SMILES)
100 to 500 nM	CN(C)CCCn1nc(C2=C(c3c[nH]c4sccc34)C(=O)NC2=O)c2ccccc21 [F.4.29]
500 to 1000 nM	O=C1NC(=O)C(c2c[nH]c3sccc23)=C1c1nc(N2CCC(n3ccnc3)C2)nc2ccccc12 (centres unmarked) [E.1.23]
100 to 500 nM	O=C1NC(=O)C(c2c[nH]c3sccc23)=C1c1nc(N2C[C@@H]3C[C@H]2CN3)nc2ccccc12 [G.1.2]
100 to 500 nM	CNCC1CCN(c2nc(C3=C(c4c[nH]c5sccc45)C(=O)NC3=O)c3ccccc3n2)CC1 [G.1.15]
< 100 nM	O=C1NC(=O)C(c2c[nH]c3sccc23)=C1c1nc(N2CC[C@H](N3CCCC3)[C@@H](F)C2)nc2ccccc12 [E.1.30]
< 100 nM	Cc1cccc2nc(N3CCN(C)CC3)nc(C3=C(c4c[nH]c5sccc45)C(=O)NC3=O)c12 [F.4.30]
< 100 nM	O=C1NC(=O)C(c2c[nH]c3ccsc23)=C1c1nc(N2CCNCC2)nc2ccccc12 [G.1.1, 3-(2-(piperazin-1-yl)quinazolin-4-yl)-4-(4H-thieno[3,2-b]pyrrol-6-yl)-1H-pyrrole-2,5-dione]
< 100 nM	CN1CCN(c2cc(C3=C(c4c[nH]c5ccsc45)C(=O)NC3=O)c3ccccc3n2)CC1 [F.3.3]
100 to 500 nM	O=C1NC(=O)C(c2c[nH]c3sccc23)=C1c1nc(N2CCC(CN3CCCC3)CC2)nc2ccccc12 [E.1.11]
< 100 nM	CN1CC[C@H](Cn2nc(C3=C(c4c[nH]c5sccc45)C(=O)NC3=O)c3ccccc32)[C@H](F)C1 (relative stereo) [F.4.4]
